For one experiment, the target named is T1, human σ2/TMEM97 receptor (Homo sapiens, UniProt Q5BJF2).
T1 construct: expressed in transfected cells; host or cells: HEK-293
The experiment is described as follows: Binding assay to human σ2/TMEM97 receptor ([3H]-DTG). The conditions noted are these: transfected HEK-293 membranes, 10 nM [3H]-DTG, 25° C., 120 minutes; read-out: Binding σ-[…] (binding to σ2-receptor expressed as Ki). In short, it runs like this:
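Membranes from transfected HEK-293 cells incubated with 10 nM [3H]-DTG in 50 mM Tris-HCl pH 8.0, 120 min at 25 °C; non-specific binding defined with 10 μM haloperidol. Bound radioactivity counted after filtration; compounds tested as % inhibition at 1 or 10 μM or at five concentrations for Ki.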

Another experiment has as its target T2, human σ1 receptor (Homo sapiens, UniProt Q99720).
T2 construct: expressed in transfected cells; host or cells: HEK-293
The experiment is described as follows: Human σ1 receptor radioligand assay ([3H](+)-pentazocine). The format is binding. In short, it runs like this: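 Binding used [3H](+)-pentazocine, 120 min at 37° C, with non-specific binding defined by 10 μM haloperidol. Bound radioligand was collected by filtration, washed with ice-cold 10 mM Tris-HCl pH 7.4 and counted by scintillation.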

Where [1] appears, read: transfected HEK-293 membranes, 5 nM [3H](+)-pentazocine, 37° C., 120 minutes, read-out: Binding σ-[…] (binding to σ1-receptor expressed as Ki).

This is an account of results in patent publication US20240174671A1, “New 2,3-Dihydro-1H-pyrrolo[3,2-b]pyridine Derivatives as Sigma Ligands” (ACONDICIONAMIENTO TARRASENSE, priority 2021, published 2024).

Read-outs that look alike come from different tables or passages of the source. A value given as a limit tells only on which side of the number the result lay.

T1 sequence (Q5BJF2 whole entry): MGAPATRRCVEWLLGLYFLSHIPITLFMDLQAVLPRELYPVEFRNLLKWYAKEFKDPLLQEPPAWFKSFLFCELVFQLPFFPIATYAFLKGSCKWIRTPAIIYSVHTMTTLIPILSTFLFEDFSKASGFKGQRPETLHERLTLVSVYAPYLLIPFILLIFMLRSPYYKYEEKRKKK
T2 sequence (Q99720 whole entry): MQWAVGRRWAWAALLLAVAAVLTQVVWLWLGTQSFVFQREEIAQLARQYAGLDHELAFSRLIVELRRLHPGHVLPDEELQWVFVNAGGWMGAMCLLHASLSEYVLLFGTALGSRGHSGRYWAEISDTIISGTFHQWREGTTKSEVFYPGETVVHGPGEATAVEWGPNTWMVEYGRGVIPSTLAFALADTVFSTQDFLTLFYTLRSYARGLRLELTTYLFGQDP

Take `CC1(C)CN(C(=O)N2CCC3(CCN(Cc4cc(F)ccc4F)CC3)CC2)c2cccnc21` [Example 164, (9-(2,5-difluorobenzyl)-3,9-diazaspiro[5.5]undecan-3-yl)(3,3-dimethyl-2,3-dihydro-1H-pyrrolo[3,2-b]pyridin-1-yl)methanone]: the Ki at human σ2/TMEM97 receptor and on human σ1 receptor (setting [1]) was below 0.1 µM in each case.
Regarding `CC1(C)CN(C(=O)N2CCC3(CCN(Cc4ccc(C#N)cc4F)CC3)CC2)c2cccnc21` [Example 165, 4-((9-(3,3-dimethyl-2,3-dihydro-1H-pyrrolo[3,2-b]pyridine-1-carbonyl)-3,9-diazaspiro[5.5]undecan-3-yl)methyl)-3-fluorobenzonitrile], the Ki on human σ2/TMEM97 receptor and at human σ1 receptor (setting [1]) was below 0.1 µM throughout.
For the compound `CC1(C)CN(C(=O)N2CCC3(CCN(CC4CCOCC4)CC3)CC2)c2cccnc21` [Example 166, (3,3-dimethyl-2,3-dihydro-1H-pyrrolo[3,2-b]pyridin-1-yl)(9-((tetrahydro-2H-pyran-4-yl)methyl)-3,9-diazaspiro[5.5]undecan-3-yl)methanone], the Ki on human σ2/TMEM97 receptor is below 0.1 µM; on human σ1 receptor (setting [1]) it was 0.1 to 0.5 µM.
Take `CC1(C)CN(C(=O)N2CCC3(CCN(Cc4cc(C#N)c(F)cc4F)CC3)CC2)c2cccnc21` [Example 167, 5-((9-(3,3-dimethyl-2,3-dihydro-1H-pyrrolo[3,2-b]pyridine-1-carbonyl)-3,9-diazaspiro[5.5]undecan-3-yl)methyl)-2,4-difluorobenzonitrile]: the Ki at human σ2/TMEM97 receptor and on human σ1 receptor (setting [1]) was below 0.1 µM in each case.
In the case of `Cc1ccc2c(n1)C(C)(C)CN2C(=O)[C@H]1CC[C@H](N(C)Cc2cc(F)cc(F)c2)CC1` [Example 168, ((1r,4r)-4-((3,5-difluorobenzyl)(methyl)amino)cyclohexyl)(3,3,5-trimethyl-2,3-dihydro-1H-pyrrolo[3,2-b]pyridin-1-yl)methanone], the inhibition constant Ki on human σ2/TMEM97 receptor and on human σ1 receptor (setting [1]) was below 0.1 µM in each case.
For `Cc1ccc2c(n1)C(C)(C)CN2C(=O)[C@H]1CC[C@H](N(C)Cc2cccc(F)c2)CC1` [Example 169, ((1r,4r)-4-((3-fluorobenzyl)(methyl)amino)cyclohexyl)(3,3,5-trimethyl-2,3-dihydro-1H-pyrrolo[3,2-b]pyridin-1-yl)methanone], the Ki at human σ2/TMEM97 receptor and at human σ1 receptor (setting [1]) was below 0.1 µM in each case.
With `Cc1ccc2c(n1)C(C)(C)CN2C(=O)[C@H]1CC[C@H](N(C)Cc2ccc(F)c(F)c2)CC1` [Example 170, ((1r,4r)-4-((3,4-difluorobenzyl)(methyl)amino)cyclohexyl)(3,3,5-trimethyl-2,3-dihydro-1H-pyrrolo[3,2-b]pyridin-1-yl)methanone], the Ki on human σ2/TMEM97 receptor and at human σ1 receptor (setting [1]) was below 0.1 µM in each case.
For the compound `Cc1ccc2c(n1)C(C)(C)CN2C(=O)[C@H]1CC[C@H](N(C)Cc2c(F)cccc2F)CC1` [Example 171, ((1r,4r)-4-((2,6-difluorobenzyl)(methyl)amino)cyclohexyl)(3,3,5-trimethyl-2,3-dihydro-1H-pyrrolo[3,2-b]pyridin-1-yl)methanone], the Ki on human σ2/TMEM97 receptor and on human σ1 receptor (setting [1]) was below 0.1 µM throughout.
In the case of `Cc1ccc2c(n1)C(C)(C)CN2C(=O)[C@H]1CC[C@H](N(C)Cc2ccc(F)cc2F)CC1` [Example 172, ((1r,4r)-4-((2,4-difluorobenzyl)(methyl)amino)cyclohexyl)(3,3,5-trimethyl-2,3-dihydro-1H-pyrrolo[3,2-b]pyridin-1-yl)methanone], the Ki on human σ2/TMEM97 receptor and at human σ1 receptor (setting [1]) was below 0.1 µM in each case.
Turning to `Cc1ccc2c(n1)C(C)(C)CN2C(=O)[C@H]1CC[C@H](N(C)Cc2cc(F)ccc2F)CC1` [Example 173, ((1r,4r)-4-((2,5-difluorobenzyl)(methyl)amino)cyclohexyl)(3,3,5-trimethyl-2,3-dihydro-1H-pyrrolo[3,2-b]pyridin-1-yl)methanone], the Ki at human σ2/TMEM97 receptor and on human σ1 receptor (setting [1]) was below 0.1 µM throughout.
Turning to `Cc1ccc2c(n1)C(C)(C)CN2C(=O)[C@H]1CC[C@H](N(C)Cc2cccc(F)c2F)CC1` [Example 174, ((1r,4r)-4-((2,3-difluorobenzyl)(methyl)amino)cyclohexyl)(3,3,5-trimethyl-2,3-dihydro-1H-pyrrolo[3,2-b]pyridin-1-yl)methanone], the Ki at human σ2/TMEM97 receptor and on human σ1 receptor (setting [1]) was below 0.1 µM each time.
As to `CN(Cc1ccccc1F)[C@H]1CC[C@H](C(=O)N2CC(C)(C)c3ncccc32)CC1` [Example 175, (3,3-dimethyl-2,3-dihydro-1H-pyrrolo[3,2-b]pyridin-1-yl)((1r,4r)-4-((2-fluorobenzyl)(methyl)amino)cyclohexyl)methanone], the Ki at human σ2/TMEM97 receptor and on human σ1 receptor (setting [1]) was below 0.1 µM each time.
With `CN(Cc1cc(F)ccc1F)[C@H]1CC[C@H](C(=O)N2CC(C)(C)c3ncccc32)CC1` [Example 176, ((1r,4r)-4-((2,5-difluorobenzyl)(methyl)amino)cyclohexyl)(3,3-dimethyl-2,3-dihydro-1H-pyrrolo[3,2-b]pyridin-1-yl)methanone], the Ki on human σ2/TMEM97 receptor and on human σ1 receptor (setting [1]) was below 0.1 µM throughout.
As to `Cc1ccc2c(n1)C(C)(C)CN2C(=O)[C@H]1CC[C@H](N(C)Cc2ccnc(C(F)(F)F)c2)CC1` [Example 177, ((1r,4r)-4-(methyl((2-(trifluoromethyl)pyridin-4-yl)methyl)amino)cyclohexyl)(3,3,5-trimethyl-2,3-dihydro-1H-pyrrolo[3,2-b]pyridin-1-yl)methanone], the Ki was below 0.1 µM at human σ2/TMEM97 receptor and 0.1 to 0.5 µM at human σ1 receptor (setting [1]).
With `Cc1ccc2c(n1)C(C)(C)CN2C(=O)[C@H]1CC[C@H](N(C)Cc2ncccc2F)CC1` [Example 178, ((1r,4r)-4-(((3-fluoropyridin-2-yl)methyl)(methyl)amino)cyclohexyl)(3,3,5-trimethyl-2,3-dihydro-1H-pyrrolo[3,2-b]pyridin-1-yl)methanone], the Ki on human σ2/TMEM97 receptor was 0.1 to 0.5 µM; on human σ1 receptor (setting [1]), below 0.1 µM.
As for `Cc1ccc2c(n1)C(C)(C)CN2C(=O)[C@H]1CC[C@H](N(C)Cc2ccc(F)cn2)CC1` [Example 179, ((1r,4r)-4-(((5-fluoropyridin-2-yl)methyl)(methyl)amino)cyclohexyl)(3,3,5-trimethyl-2,3-dihydro-1H-pyrrolo[3,2-b]pyridin-1-yl)methanone], the results for the Ki on human σ2/TMEM97 receptor and at human σ1 receptor (setting [1]) were 0.1 to 0.5 µM and below 0.1 µM, respectively.
For `Cc1ccc2c(n1)C(C)(C)CN2C(=O)[C@H]1CC[C@H](N(C)Cc2ccc(C#N)c(F)c2)CC1` [Example 180, 2-fluoro-4-((methyl((1r,4r)-4-(3,3,5-trimethyl-2,3-dihydro-1H-pyrrolo[3,2-b]pyridine-1-carbonyl)cyclohexyl)amino)methyl)benzonitrile], the Ki on human σ2/TMEM97 receptor and at human σ1 receptor (setting [1]) was below 0.1 µM in each case.
Consider `Cc1ccc2c(n1)C(C)(C)CN2C(=O)[C@H]1CC[C@H](N(C)Cc2ccc(F)c(C#N)c2)CC1` [Example 181, 2-fluoro-5-((methyl((1r,4r)-4-(3,3,5-trimethyl-2,3-dihydro-1H-pyrrolo[3,2-b]pyridine-1-carbonyl)cyclohexyl)amino)methyl)benzonitrile], for which the Ki at human σ2/TMEM97 receptor and on human σ1 receptor (setting [1]) was below 0.1 µM throughout.
Take `Cc1ccc2c(n1)C(C)(C)CN2C(=O)[C@H]1CC[C@H](N(C)Cc2ccc(F)cc2)CC1` [Example 182, ((1r,4r)-4-((4-fluorobenzyl)(methyl)amino)cyclohexyl)(3,3,5-trimethyl-2,3-dihydro-1H-pyrrolo[3,2-b]pyridin-1-yl)methanone]: the Ki on human σ2/TMEM97 receptor and on human σ1 receptor (setting [1]) was below 0.1 µM each time.
`Cc1ccc2c(n1)C(C)(C)CN2C(=O)[C@H]1CC[C@H](N(C)Cc2ccccc2F)CC1` [Example 183, ((1r,4r)-4-((2-fluorobenzyl)(methyl)amino)cyclohexyl)(3,3,5-trimethyl-2,3-dihydro-1H-pyrrolo[3,2-b]pyridin-1-yl)methanone]: the Ki at human σ2/TMEM97 receptor and on human σ1 receptor was below 0.1 µM in each case.
Regarding `Cc1ccc2c(n1)C(C)(C)CN2C(=O)[C@H]1CC[C@H](N(C)Cc2ccc(C(F)(F)F)nc2)CC1` [Example 184, ((1r,4r)-4-(methyl((6-(trifluoromethyl)pyridin-3-yl)methyl)amino)cyclohexyl)(3,3,5-trimethyl-2,3-dihydro-1H-pyrrolo[3,2-b]pyridin-1-yl)methanone], the Ki on human σ2/TMEM97 receptor and at human σ1 receptor (setting [1]) was below 0.1 µM throughout.
Take `Cc1ccc2c(n1)C(C)(C)CN2C(=O)[C@H]1CC[C@H](N(C)CC2CCOCC2)CC1` [Example 185, ((1r,4r)-4-(methyl((tetrahydro-2H-pyran-4-yl)methyl)amino)cyclohexyl)(3,3,5-trimethyl-2,3-dihydro-1H-pyrrolo[3,2-b]pyridin-1-yl)methanone]: the Ki on human σ2/TMEM97 receptor was below 0.1 µM; at human σ1 receptor (setting [1]), 0.1 to 0.5 µM.
The corresponding values for `CN(Cc1ccccc1)[C@H]1CC[C@H](C(=O)N2CC(C)(C)c3nc(C(F)(F)F)ccc32)CC1` [Example 186, ((1r,4r)-4-(benzyl(methyl)amino)cyclohexyl)(3,3-dimethyl-5-(trifluoromethyl)-2,3-dihydro-1H-pyrrolo[3,2-b]pyridin-1-yl)methanone] are above 1 µM and below 0.1 µM.
Regarding `CN(Cc1ccccc1)[C@H]1CC[C@H](C(=O)N2CC(C)(C)c3ncc(F)cc32)CC1` [Example 187, ((1r,4r)-4-(benzyl(methyl)amino)cyclohexyl)(6-fluoro-3,3-dimethyl-2,3-dihydro-1H-pyrrolo[3,2-b]pyridin-1-yl)methanone], the Ki at human σ2/TMEM97 receptor and at human σ1 receptor (setting [1]) was below 0.1 µM in each case.
Turning to `Cc1ccc2c(n1)C(C)(C)CN2C(=O)[C@H]1CC[C@H](NCc2ccccc2F)CC1` [Example 188, ((1r,4r)-4-((2-fluorobenzyl)amino)cyclohexyl)(3,3,5-trimethyl-2,3-dihydro-1H-pyrrolo[3,2-b]pyridin-1-yl)methanone], the Ki on human σ2/TMEM97 receptor and at human σ1 receptor (setting [1]) was below 0.1 µM each time.
